Assay results as given in ChEMBL document CHEMBL1145916, “A method for designing conformationally restricted analogues based on allylic strain: synthesis of a novel class of noncompetitive NMDA receptor antagonists having the acrylamide structure” (J Med Chem, 2003).

Molecular target: Glutamate NMDA receptor
Experiment: Binding affinity for N-methyl-D-aspartate glutamate receptor of cerebral cortical synaptic membranes from rats using [3H]MK-801 as radioligand

IC50	SMILES
3.6 µM	CCN(CC)C(=O)/C(=C\C1CCCN1)c1ccccc1 (stereo not given)
0.53 µM	CCCN(CCC)C(=O)/C(=C\C(N)CC)c1ccccc1 (stereo not given)
1.7 µM	CCCN(CCC)C(=O)/C(=C\C1CCCN1)c1ccccc1F (stereo not given)
> 1000 µM	CCCN(CCC)C(=O)/C(=C\C1CCCN1)c1ccc(C)cc1 (stereo not given)
> 1000 µM	O=C(/C(=C\C1CCCN1)c1ccccc1)N1CCNCC1 (stereo not given)
160 µM	CCCN(CCC)C(=O)/C(=C\C1CCCN1)c1ccc(OC)cc1 (stereo not given)
1 µM	CCN(CC)C(=O)[C@@]1(c2ccccc2)C[C@H]1C1CCCN1 (stereo not given in full)
13 µM	CCCN(CCC)C(=O)/C(=C\C1CCCN1)c1ccc(F)cc1 (stereo not given)
0.74 µM	CCCN(CC1CC1)C(=O)/C(=C\C1CCCN1)c1ccccc1 (stereo not given)
0.54 µM	CCCN(CCC)C(=O)/C(=C\C1CCCN1)c1ccccc1 (stereo not given)
0.42 µM	CCCN(CCC)C(=O)/C(=C\C1CCCN1)c1cccc(F)c1 (stereo not given)
0.2 µM	CC[C@H](N)[C@@H]1C[C@@]1(C(=O)N(CC)CC)c1ccccc1
4.2 µM	CCCCN(CCCC)C(=O)/C(=C\C1CCCN1)c1ccccc1 (stereo not given)
16 µM	O=C(/C(=C\C1CCCN1)c1ccccc1)N1CCCCCC1 (stereo not given)
0.52 µM	C=C(C)CN(CC)C(=O)/C(=C\C1CCCN1)c1ccccc1 (stereo not given)
